According to US8106055B2, “Substituted amide compounds” (Gruenenthal GmbH, priority 2007, dated 2012):

Tests used:
[1] = molecular target: T1, serotonin (5-HT) reuptake (Rattus norvegicus, UniProt P31652); assay: Inhibition of serotonin (5HT) reuptake in synaptosomes from rat brain; type: biochemical; details: test concentration of 10 μM; read-out: 5-HT (inhibition of reuptake of serotonin, % inhibition)
T1 construct: synaptosomes are freshly isolated from areas of the rat brain; from tissue; host or cells: rat brain synaptosomes (P2 fraction)
T1 sequence (P31652 whole entry): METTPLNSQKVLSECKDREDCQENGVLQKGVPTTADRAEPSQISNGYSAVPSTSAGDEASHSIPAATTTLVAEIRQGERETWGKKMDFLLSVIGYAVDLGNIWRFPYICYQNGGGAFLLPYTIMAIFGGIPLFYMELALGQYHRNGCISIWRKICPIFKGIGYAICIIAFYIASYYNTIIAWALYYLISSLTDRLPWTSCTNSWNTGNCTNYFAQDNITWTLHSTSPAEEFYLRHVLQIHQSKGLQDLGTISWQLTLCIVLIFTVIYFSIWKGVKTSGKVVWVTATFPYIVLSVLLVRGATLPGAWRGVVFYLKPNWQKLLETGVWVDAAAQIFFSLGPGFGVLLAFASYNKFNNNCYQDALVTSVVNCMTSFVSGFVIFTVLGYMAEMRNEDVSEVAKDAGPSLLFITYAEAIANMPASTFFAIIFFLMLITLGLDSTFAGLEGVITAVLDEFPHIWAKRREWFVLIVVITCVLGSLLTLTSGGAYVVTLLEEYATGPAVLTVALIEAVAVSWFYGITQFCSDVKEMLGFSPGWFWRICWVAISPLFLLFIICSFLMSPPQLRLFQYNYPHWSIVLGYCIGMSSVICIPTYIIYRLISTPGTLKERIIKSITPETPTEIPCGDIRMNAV
Procedure, shortened: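 Freshly isolated rat brain synaptosomes (P2 fraction) used for 5-HT reuptake. Test compound at 10 μM, activity given as % inhibition.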

[2] = molecular target: T2, human bradykinin 1 receptor (B1R) (Homo sapiens, UniProt P46663); assay: Functional investigation on the human bradykinin 1 receptor (B1R), Ca2+ FLIPR assay in CHO K1 hB1R cells; type: cell-based; details: CHO-K1, B1R antagonism human; test substance 10 μM; Ca2+ FLIPR, CHO K1 hB1R cells; read-out: B1R Ant. h [10 μM] % Inhibition
T2 construct: expressed in transfected cells; host or cells: CHO K1 cells
T2 sequence (P46663 1-353): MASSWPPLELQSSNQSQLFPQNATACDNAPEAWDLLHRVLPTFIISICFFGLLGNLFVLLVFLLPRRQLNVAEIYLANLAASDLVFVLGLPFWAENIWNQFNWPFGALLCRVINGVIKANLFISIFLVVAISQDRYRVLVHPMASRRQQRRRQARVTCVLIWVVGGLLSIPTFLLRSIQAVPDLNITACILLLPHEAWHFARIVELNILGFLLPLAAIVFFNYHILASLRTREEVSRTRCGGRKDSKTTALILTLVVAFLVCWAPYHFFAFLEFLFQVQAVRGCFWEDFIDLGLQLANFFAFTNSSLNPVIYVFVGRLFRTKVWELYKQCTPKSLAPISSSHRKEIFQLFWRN
Procedure, shortened: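 Cells were dye-loaded with Fluo-4 plus probenecid, then test substances added and Ca2+ influx compared with agonist control for % activation. After 10-20 min, EC80 agonist (Lys-Des-Arg9-bradykinin human; Des-Arg9-bradykinin rat) was applied; suppression gave % inhibition and IC50 values.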

Structure (SMILES)	inhibition at 10 µM [1]	inhibition at 10 µM [2]
COc1cc(C)c(S(=O)(=O)N2CCN(CCOCC(=O)NC3CCC(C(c4ccccc4)N(C)C)CC3)CC2)c(C)c1C (stereo not drawn) [Example 20, N-(4-((dimethylamino)(phenyl)methyl)cyclohexyl)-2-(2-(4-(4-methoxy-2,3,6-trimethylphenylsulfonyl)piperazin-1-yl)ethoxy)acetamide]	96%	101%
CN(C)C(c1cccs1)C1CCC(CCNC(=O)COC2CCN(S(=O)(=O)c3ccc(Cl)cc3Cl)C2)CC1 (stereo not drawn) [Example 21, 2-(1-(2,4-dichlorophenylsulfonyl)pyrrolidin-3-yloxy)-N-(2-(4-((dimethylamino)(thiophen-2-yl)methyl)cyclohexyl)ethyl)acetamide]	94%	88%
COc1ccc(S(=O)(=O)N2CCC(OCC(=O)NCC3CCC(C(c4ccccc4)N(C)C)CC3)C2)cc1OC (stereo not drawn) [Example 22, 2-(1-(3,4-dimethoxyphenylsulfonyl)pyrrolidin-3-yloxy)-N-((4-((dimethylamino)(phenyl)methyl)cyclohexyl)methyl)acetamide]	87%	0%
COc1ccc(S(=O)(=O)N2CCC(OCC(=O)NCC3CCC(C(c4cccs4)N(C)C)CC3)C2)cc1OC (stereo not drawn) [Example 23, 2-(1-(3,4-dimethoxyphenylsulfonyl)pyrrolidin-3-yloxy)-N-((4-((dimethylamino)(thiophen-2-yl)methyl)cyclohexyl)methyl)acetamide]	82%	-25%
CN(C)C(c1cccs1)C1CCC(CNC(=O)COC2CCN(S(=O)(=O)c3cccc(C(F)(F)F)c3)C2)CC1 (stereo not drawn) [Example 25, N-((4-((dimethylamino)(thiophen-2-yl)methyl)cyclohexyl)methyl)-2-(1-(3-(trifluoromethyl)phenylsulfonyl)pyrrolidin-3-yloxy)acetamide]	82%	-6%
Cc1cc(C)c(S(=O)(=O)N2CCC(OCC(=O)NCC3CCC(C(c4ccccc4)N(C)C)CC3)C2)c(C)c1 (stereo not drawn) [Example 26, N-((4-((dimethylamino)(phenyl)methyl)cyclohexyl)methyl)-2-(1-(mesitylsulfonyl)pyrrolidin-3-yloxy)acetamide]	83%	51%
Cc1cc(C)c(S(=O)(=O)N2CCC(OCC(=O)NCC3CCC(C(c4cccs4)N(C)C)CC3)C2)c(C)c1 (stereo not drawn) [Example 27, N-((4-((dimethylamino)(thiophen-2-yl)methyl)cyclohexyl)methyl)-2-(1-(mesitylsulfonyl)pyrrolidin-3-yloxy)acetamide]	84%	60%
CN(C)C(c1cccs1)C1CCC(NC(=O)COC2CCN(S(=O)(=O)c3ccc(F)cc3)C2)CC1 (stereo not drawn) [Example 28, N-(4-((dimethylamino)(thiophen-2-yl)methyl)cyclohexyl)-2-(1-(4-fluorophenylsulfonyl)pyrrolidin-3-yloxy)acetamide]	76%	-7%
COc1cc(C)c(S(=O)(=O)N2CCCC(OCC(=O)NCC3CCC(C(c4ccccc4)N(C)C)CC3)C2)c(C)c1C (stereo not drawn) [Example 29, N-((4-((dimethylamino)(phenyl)methyl)cyclohexyl)methyl)-2-(1-(4-methoxy-2,3,6-trimethylphenylsulfonyl)piperidin-3-yloxy)acetamide]	93%	35%
COc1ccc(S(=O)(=O)N2CCCCC2COCC(=O)NCCC2CCC(C(c3cccs3)N(C)C)CC2)cc1 (stereo not drawn) [Example 30, N-(2-(4-((dimethylamino)(thiophen-2-yl)methyl)cyclohexyl)ethyl)-2-((1-(4-methoxyphenylsulfonyl)piperidin-2-yl)methoxy)acetamide]	98%	81%
CN(C)C(c1cccs1)C1CCC(CNC(=O)COC2CCCCC2N(C)S(=O)(=O)c2ccc(Cl)c(Cl)c2)CC1 (stereo not drawn) [Example 31, 2-(2-(3,4-dichloro-N-methylphenylsulfonamido)cyclohexyloxy)-N-((4-((dimethylamino)(thiophen-2-yl)methyl)cyclohexyl)methyl)acetamide]	88%	10%
CN(C)C(c1cccs1)C1CCC(CCNC(=O)COCCN(C)S(=O)(=O)c2cccc(C(F)(F)F)c2)CC1 (stereo not drawn) [Example 32, N-(2-(4-((dimethylamino)(thiophen-2-yl)methyl)cyclohexyl)ethyl)-2-(2-(N-methyl-3-(trifluoromethyl)phenylsulfonamido)ethoxy)acetamide]	97%	32%
CN(C)C(c1ccccc1)C1CCC(NC(=O)COCCN(C)S(=O)(=O)c2ccc(Cl)cc2Cl)CC1 (stereo not drawn) [Example 33, 2-(2-(2,4-dichloro-N-methylphenylsulfonamido)ethoxy)-N-(4-((dimethylamino)(phenyl)methyl)cyclohexyl)acetamide]	73%	77%
CN(C)C(c1ccccc1)C1CCC(NC(=O)COCCN(C)S(=O)(=O)c2c(F)c(F)c(F)c(F)c2F)CC1 (stereo not drawn) [Example 136, N-(4-((dimethylamino)(phenyl)methyl)cyclohexyl)-2-(2-(2,3,4,5,6-pentafluoro-N-methylphenylsulfonamido)ethoxy)acetamide]	83%	87%
COc1cc(C)c(S(=O)(=O)N(C)CCOCC(=O)NCC2CCC(C(c3ccccc3)N(C)C)CC2)c(C)c1 (stereo not drawn) [Example 137, N-((4-((dimethylamino)(phenyl)methyl)cyclohexyl)methyl)-2-(2-(4-methoxy-N,2,6-trimethylphenylsulfonamido)ethoxy)acetamide]	89%	102%
CN(C)C(c1cccs1)C1CCC(CCNC(=O)COC2CCN(S(=O)(=O)c3ccc(F)cc3)C2)CC1 (stereo not drawn) [Example 138, N-(2-(4-((dimethylamino)(thiophen-2-yl)methyl)cyclohexyl)ethyl)-2-(1-(4-fluorophenylsulfonyl)pyrrolidin-3-yloxy)acetamide]	98%	2%
CN(C)C(c1cccc(F)c1)C1CCC(NC(=O)COC2CCN(S(=O)(=O)c3cccc(C(F)(F)F)c3)C2)CC1 (stereo not drawn) [Example 139, N-(4-((dimethylamino)(3-fluorophenyl)methyl)cyclohexyl)-2-(1-(3-(trifluoromethyl)phenylsulfonyl)pyrrolidin-3-yloxy)acetamide]	79%	-5%
Cc1cc(C)c(S(=O)(=O)N2CCC(OCC(=O)NC3CCC(C(c4cccc(F)c4)N(C)C)CC3)C2)c(C)c1 (stereo not drawn) [Example 140, N-(4-((dimethylamino)(3-fluorophenyl)methyl)cyclohexyl)-2-(1-(mesitylsulfonyl)pyrrolidin-3-yloxy)acetamide]	72%	43%
Cc1cc(C)c(S(=O)(=O)N2CCC(OCC(=O)NCC3CCC(C(c4cccc(F)c4)N(C)C)CC3)C2)c(C)c1 (stereo not drawn) [Example 141, N-((4-((dimethylamino)(3-fluorophenyl)methyl)cyclohexyl)methyl)-2-(1-(mesitylsulfonyl)pyrrolidin-3-yloxy)acetamide]	80%	54%
COc1ccc(S(=O)(=O)N(C)CCOCC(=O)NCC2CCC(C(c3cccs3)N(C)C)CC2)cc1 (stereo not drawn) [Example 142, N-((4-((dimethylamino)(thiophen-2-yl)methyl)cyclohexyl)methyl)-2-(2-(4-methoxy-N-methylphenylsulfonamido)ethoxy)acetamide]	70%	50%
COc1cc(C)c(S(=O)(=O)N2CCC(OCC(=O)NCC3CCC(C(c4ccccc4)N(C)C)CC3)CC2)c(C)c1C (stereo not drawn) [Example 143, N-((4-((dimethylamino)(phenyl)methyl)cyclohexyl)methyl)-2-(1-(4-methoxy-2,3,6-trimethylphenylsulfonyl)piperidin-4-yloxy)acetamide]	93%	11%
COc1cc(C)c(S(=O)(=O)N2CCCC(OCC(=O)NC3CCC(C(c4cccs4)N(C)C)CC3)C2)c(C)c1C (stereo not drawn) [Example 144, N-(4-((dimethylamino)(thiophen-2-yl)methyl)cyclohexyl)-2-(1-(4-methoxy-2,3,6-trimethylphenylsulfonyl)piperidin-3-yloxy)acetamide]	87%	20%
COc1cc(C)c(S(=O)(=O)N2CCCC(OCC(=O)NCC3CCC(C(c4cccc(F)c4)N(C)C)CC3)C2)c(C)c1C (stereo not drawn) [Example 145, N-((4-((dimethylamino)(3-fluorophenyl)methyl)cyclohexyl)methyl)-2-(1-(4-methoxy-2,3,6-trimethylphenylsulfonyl)piperidin-3-yloxy)acetamide]	91%	12%
COc1cc(C)c(S(=O)(=O)N2CCC(CCOCC(=O)NCC3CCC(C(c4ccccc4)N(C)C)CC3)CC2)c(C)c1C (stereo not drawn) [Example 146, N-((4-((dimethylamino)(phenyl)methyl)cyclohexyl)methyl)-2-(2-(1-(4-methoxy-2,3,6-trimethylphenylsulfonyl)piperidin-4-yl)ethoxy)acetamide]	95%	23%
